This is an account of results in the Deep4Chem optical property database.

The data set in a line: solvent given as SMILES.

“And” between values parts separate entries of the source, which are not always exact repeats. Equal values may be shown once.

For the setting “in CN(C)C=O”, `CCN(CC)c1ccc(-c2nc(Oc3ccc(-c4nc5ccc(Cl)cc5o4)cc3)nc(Oc3ccc(-c4nc5ccc(Cl)cc5o4)cc3)n2)cc1` had an absorption maximum of 393 nm.
For the setting “in ClC(Cl)Cl”, `CCCCCCN1C(=O)c2cccc3c(-c4ccc(-c5cccs5)s4)ccc(c23)C1=O` gave an absorption maximum of 409 nm.
On to `C1=Cc2ccccc2C(=Cc2ccc(-c3cc(-c4ccc(C=C5c6ccccc6C=Cc6ccccc65)cc4)c(-c4ccc(C=C5c6ccccc6C=Cc6ccccc65)cc4)cc3-c3ccc(C=C4c5ccccc5C=Cc5ccccc54)cc3)cc2)c2ccccc21`, for which the absorption maximum (in C1CCOC1) stood at 324 nm.
For the setting “in ClC(Cl)Cl”, `CCCCCCCCCCOc1cc(OCCCCCCCCCC)cc(C2=C3C(/C=C/c4ccc(OC)cc4)=C(C#Cc4ccc(C(C)(C)C)cc4)C(/C=C/c4ccc(OC)cc4)=[N+]3[B-](F)(F)n3c(/C=C/c4ccc(OC)cc4)c(C#Cc4ccc(C(C)(C)C)cc4)c(/C=C/c4ccc(OC)cc4)c32)c1` returned an absorption maximum of 732 nm.
For the setting “in C1CCOC1”, `N#Cc1c(N2CCCC2)cc(-c2ccccc2)c2c1-c1ccccc1C2=O` yielded an absorption maximum of 392 nm.
The molecule `Cc1c(COC(=O)c2ccccc2Cl)n2c(OCC(=O)c3ccccc3Cl)c(C)c(=O)n2c1=O` yielded an absorption maximum (in CCO) of 381 nm.
On to `CN(C)CCCN1c2ccccc2CCc2ccccc21`, for which the absorption maximum came out at 276 nm (in CC#N), 274 nm (in CO) and 275 nm (in O).
Regarding `Cc1cc(C)c(C2=C3C=c4c(c5ccccc5c5ccccc45)=[N+]3[B-](F)(F)n3c2cc2c4ccccc4c4ccccc4c23)c(C)c1`, the absorption maximum came out at 674 nm (in C1CCCCC1); 673 nm (in C1CCOC1); 666 nm (in CC#N); 680 nm (in Cc1ccccc1); 673 nm (in ClCCl).
Take `COc1ccc(C(=O)NC(C)(C)C)c2c1ccc1c3ccccc3c3ccccc3c12`: the absorption maximum (in ClCCl) is listed as 334 nm.
On the same count and under the same terms, in the case of `COc1ccc(C2=C(c3ccc(OC)cc3)c3cccc4c5c(cc(c34)O2)=NC(C#N)C(C#N)N=5)cc1` (configuration not stated) it was 511 nm.
Molecule `Cc1ccc2nc3c(=O)[nH]c(=O)[nH]c3nc2c1C` gave an absorption maximum (in CC#N) of 375 nm.
Molecule `CN1CCCc2cc(C3=Cc4cccc[n+]4[B-](F)(F)O3)ccc21` returned an absorption maximum (in ClC(Cl)Cl) of 438 nm.
For the molecule `Cc1cc(C)c2cc3cc(C)ncc3cc2c1`, the absorption maximum (in CCO) is reported as 386.1 nm.
Take `CC[N+](CC)=c1ccc2nc3c(cc(NCCC(=O)NC(C)C(=O)OC)c4ccccc43)oc-2c1` (configuration not stated): the absorption maximum (in CCO) is 600 nm and the absorption maximum (in O) is 580 nm.
In the case of `Cc1cc(C)n2c1C=[N+]1[N+](=C3C=NC=CN3[B-]1(F)F)[B-]2(F)F`, the absorption maximum (in ClCCl) amounted to 467 nm.
Consider `Cc1cc(-c2ccccc2C)cc(C)[o+]1`, for which the absorption maximum is, setting by setting: (in CC#N) 327 nm; (in ClCCl) 343 nm.
For `CC(C)(C)c1ccc2c(c1)c1cc(C(C)(C)C)ccc1n2-c1ccc(C#Cc2ccc(C=C(C#N)C#N)cc2)cc1`, the absorption maximum was 346 nm (in CC#N), 345 nm (in CCCCC), 348 nm (in Cc1ccccc1) and 410 nm (in ClCCl).
The molecule `CC1=C(Cl)C(/C=C/c2ccc3c(c2)c2ccccc2n3Cc2cn(CCC[P+](c3ccccc3)(c3ccccc3)c3ccccc3)nn2)=[N+]2C1=C(c1ccc(I)cc1)c1c(C)c(Cl)c(C)n1[B-]2(F)F` had an absorption maximum (in CCO) of 612 nm.
For the molecule `c1ccc(-c2nc(-c3ccc(-c4nc(-c5ccccc5)c(-c5ccccc5)[nH]4)s3)[nH]c2-c2ccccc2)cc1`, the absorption maximum was 386 nm (in C1CCOC1); 385 nm (in CC#N); 392 nm (in CC(=O)O); 384 nm and 385 nm (in CC(C)=O); 385 nm (in CCOC(C)=O); 384 nm (in CCOCC). Further, the absorption maximum reads like this: (in CO) 382 nm; (in ClC(Cl)Cl) 395 nm and 394.99 nm.
With `C(=N\c1ccc(-c2cn3nc(-c4cccs4)sc3n2)cc1)/c1ccc(N(c2ccccc2)c2ccccc2)cc1`, the absorption maximum (in ClC(Cl)Cl) came out at 390 nm.
In turn, `CCCCCCN(CCCCCC)c1ccc(C#Cc2ccc(-c3ccc(C#Cc4ccc(N(CCCCCC)CCCCCC)cc4)cc3)cc2)cc1` showed an absorption maximum (in Cc1ccccc1) of 374 nm.
Under “in CCO”, `CN1C(=CC2=C(O)C(=O)C2=C2C(=O)c3ccccc3C2=O)C(C)(C)c2ccccc21` gave an absorption maximum of 492 nm.
As for `Cc1nc2c(ccc3c2sc(/C=C/c2ccc(N(C)C)cc2)[n+]3C)s1`, the absorption maximum stood at 534 nm (in CO) and 557 nm (in ClC(Cl)Cl).
`CCOC(=O)c1cc(C(=O)OCC)c2cc(C(=O)O)ccc2n1` had an absorption maximum (in CCO) of 316 nm.
As to `CN(C)c1ccc(C2=CC3=C(c4ccc(C#N)cc4)[C@H]4c5ccccc5[C@]3(S2)c2ccccc24)cc1`, the absorption maximum (in ClCCl) was found to be 436 nm.
As for `N#Cc1cc2ccc(cc2)c2cccc3cccc(c4ccc(cc4)cc(C#N)c4ccc(cc4)c4cccc5cccc(c6ccc1cc6)c54)c32`, the absorption maximum (in Cc1ccccc1) is recorded as 350 nm.
With `COc1cc2c(cc1-c1ccccc1)Cc1c3c(c4c(c1-2)-c1cc(OC)c(-c2ccccc2)cc1C4)C(=O)N(CCC(C)C)C3=O`, the absorption maximum by setting is: (in C1CCOC1) 405 nm; (in CC#N) 406 nm; (in CC(C)=O) 407 nm; (in CCOC(C)=O) 405 nm; (in CS(C)=O) 413 nm; (in Cc1ccccc1) 405 nm. Also, the absorption maximum is, setting by setting: (in ClC(Cl)Cl) 414 nm; (in ClCCl) 411 nm.
In the case of `O=P1(c2ccccc2)c2cc(N3c4ccccc4Sc4ccccc43)ccc2-c2ccc(N3c4ccccc4Sc4ccccc43)cc21`, for the setting “in Cc1ccccc1”, the absorption maximum is 399 nm.
On to `COc1ccc2c(c1)CCc1c(-c3ccccc3)c3n(c1-2)[B-](F)(F)[N+]1=C2C=NC=CN2[B-](F)(F)[N+]1=C3`, for which the absorption maximum (in ClCCl) amounted to 546 nm.
Turning to `O=C(O)CCCCCn1c2ccc(Br)cc2c(=O)c2cc(Br)ccc21`, the absorption maximum (in O) was found to be 425 nm.
For the molecule `COc1cccc(/C=C/C(=O)c2c(O)cc(C)oc2=O)c1`, the absorption maximum by setting is: (in CC#N) 373 nm; (in ClCCl) 377 nm.
In turn, `C[Si](C)(C)C#CC(C#C[Si](C)(C)C)=Cc1ccc(C=C(C#C[Si](C)(C)C)C#C[Si](C)(C)C)cc1` registered an absorption maximum (in ClC(Cl)Cl) of 412 nm.
Where the note is “in C1CCOC1”, `CCC1(CC)c2ccccc2-c2c1c1c(c3c2C(CC)(CC)c2cc(/C=C/c4cccs4)ccc2-3)C(CC)(CC)c2cc(/C=C/c3cccs3)ccc2-1` displayed an absorption maximum of 382 nm.
On to `CCCCCCc1ccc(/C=C/c2ccc(CCCCCC)s2)s1`, for which the absorption maximum (in Cc1ccccc1) came to 356 nm.
With `N#Cc1ccc(-c2ccc(C3=CCCCC3)s2)s1`, the absorption maximum is 366 nm (in C1CCOC1); 366 nm (in CC#N); 366 nm (in CCCCCC); 366 nm (in CCO); 366 nm (in OCCOCCO); 369 nm (in c1ccncc1).
Consider `Cn1nc(-c2ccccc2)cc1-c1ccccc1`, for which the absorption maximum (in ClCCl) stood at 254 nm.
The molecule `COc1cc(OC)cc(C2=[O+][B-](F)(F)OC(c3ccc4ccccc4c3)=C2)c1` had an absorption maximum (in ClCCl) of 402 nm.
Where the note is “in O”, `COc1ccc(C2=C3C=CC(=[N+](C)C)C=C3[Si](C)(C)c3cc(N(C)C)ccc32)c(OC)c1` registered an absorption maximum of 649 nm.
As to `CCN(CC)c1ccc2cc(-c3ccc(-c4c5ccccc5c(-c5ccc(-c6cc7ccc(N(CC)CC)cc7oc6=O)cc5)c5ccccc45)cc3)c(=O)oc2c1`, the absorption maximum (in ClC(Cl)Cl) is 412 nm.
Turning to `COC(=O)c1cc(=O)n(C)c2cc(-c3ccccc3OC)sc12`, the absorption maximum by setting is: (in CC#N) 396 nm; (in ClCCl) 398 nm.
Turning to `c1cc2c3c(c1)ccc1[n+]3[B-]3(Oc4cccc5ccc6[n+](c45)[B-](O2)(O3)n2c-6cc3c4ccccc4c4ccccc4c32)n2c-1cc1c3ccccc3c3ccccc3c12`, for the setting “in ClCCl”, the absorption maximum is 472 nm.
Turning to `CN(C)c1ccc2c(-c3ccc(C(=O)[O-])cc3C(=O)[O-])c3ccc(=[N+](C)C)cc-3oc2c1`, the absorption maximum is given as 540 nm (in CCO) and 548 nm (in O).
`CC1(C)C(/C=C/C=C/C=C/C=C2/N(c3ccc(S(=O)(=O)[O-])cc3)c3ccc(S(=O)(=O)[O-])cc3C2(C)C)=[N+](c2ccc(S(=O)(=O)[O-])cc2)c2ccc(S(=O)(=O)[O-])cc21`: the absorption maximum is, setting by setting: (in CO) 759 nm; (in O) 754 nm.
For `C[Si]1(C)O[Si](C)(C)c2cc3nc4ccc([N+](=O)[O-])cc4c(-c4ccccc4)c3cc2[Si](C)(C)O1`, where the note is “in ClCCl”, the absorption maximum is 376 nm.
Still for that read-out and setting: in the case of `N#Cc1cc(/C=C/c2ccc(N(c3ccccc3)c3ccccc3)cc2)ccc1/C=C/c1ccc(/C=C/c2ccc(N(c3ccccc3)c3ccccc3)cc2)cc1` it was 433 nm; in that of `Cc1cc2ccccc2c2[nH]c3ccccc3c12`, 300 nm.
`Fc1ccc(/C=C/c2nc3c4ccccc4c4ccccc4c3o2)cc1`: the absorption maximum (in CC#N) was determined as 363 nm.
As to `Cc1nc2ccc(/C=C/c3ccc(N(C)C)cc3)cc2nc1-c1ccccc1`, the absorption maximum is, setting by setting: (in C1COCCO1) 403 nm; (in CC#N) 400 nm; (in ClCCl) 408 nm.
`CCn1c2ccc(-c3ccc(-c4cccs4)s3)cc2c2cc(-c3ccc(-c4cccs4)s3)ccc21` returned an absorption maximum (in ClCCl) of 380 nm.
Regarding `COc1ccccc1-c1nc(-c2ccccc2)c(-c2ccccc2)[nH]1`, under “in CO”, the absorption maximum worked out at 307 nm.
Same read-out and setting: in the case of `Cc1ccc(-c2nc(-c3ccc(O)cc3)[nH]c2-c2ccc(C)cc2)cc1` it was 295 nm.
Under “in ClCCl”, `CCOC(=O)C1=C(C(=O)OC)N2CCc3cc(OC)c(OC)cc3C2=C[C@H](c2ccc(Cl)cc2)C12c1ccccc1-c1ccccc12` had an absorption maximum of 310 nm.
Turning to `COC(=O)c1cc(/N=N/c2cc3c4c(c2)CCCN4CCC3)cc(C(=O)OC)c1`, under “in CCOC(C)=O”, the absorption maximum is listed as 471 nm.
As for `Cc1ccc(-c2sc(/C(C#N)=C/c3ccc(C#N)cc3)nc2-c2ccc(Cl)cc2)cc1`, the absorption maximum (in CC#N) is listed as 383 nm.
In the case of `COc1cc(-c2cc(N3CCCCC3)c(C#N)c3c2-c2cccc4cccc-3c24)cc(OC)c1OC`, the absorption maximum (in O) is listed as 430 nm.
